Measured values taken from patent publication US9751854B2 (Millennium Pharmaceuticals, Inc., priority 2014, dated 2017).

Key:
[1] = tested on: A431 cell line; test: Cellular anti-proliferative assay of VPS34 inhibitors in combination with a second therapeutic agent (Cell Titer Glo, 72 hrs); type: cell-based
Method: (§1) Example 57: Cellular Assay for Anti-proliferative Activity of VPS34 Inhibitors in Combination with a Second Therapeutic Agent
(§2) Cells were plated in 25 μl of media in 384 well plates at 1,000 cells per well (A431, PC9, and […] cell lines), 1,500 cells per well (NCI-H1975) or 2,000 cells per well (NCI-H1650). The plates were incubated for 24 hrs at 37° C., 6% CO2. The test compounds (see Table 38 below) were diluted serially, and 62.5 nL of each compound solution (or DMSO, if it is a single agent experiment) is added so the total added to the cells is 125 nL. Cell plates were incubated for 72 hrs at 37° C., 6% CO2. Cell Titer Glo reagent (Promega) was added. The plates were then incubated for 10 minutes at room temperature before luminescence was read on a plate reader such as the Pherastar Plus, Pherastar FS, or LEADSeeker imaging system.
(§3) Bliss antagonism was defined similarly.
(§4) Bliss dependence was defined as the percent cell survival at a certain dose combination divided by the percent cell survival predicted by Bliss independence. More specifically, the Bliss dependence is vAB/(vA*vB), where vAB is the viability with drug A and drug B added, while vA and vB are the viabilities with each drug alone. The dose for the combination used in this study is the inflection point for each drug alone.
(§5) Another way to evaluate additivity is through consideration of Loewe additivity. A difference between Bliss independence and Loewe additivity evaluations of drug combination data is that Bliss independence evaluates whether two drugs interact at all (the null hypothesis is that the mechanisms are entirely independent) and Loewe additivity evaluates whether two drugs interact in an additive fashion (the null hypothesis is that the two drugs work by identical mechanisms). For Bliss independence, the boundary between additivity and synergy must be measured. For Loewe additivity, this boundary is assumed to be at a value of 1. Thus, Bliss independence provides a boundary between antagonism and synergy or additivity. Loewe additivity provides a boundary between synergy and independence or antagonism.
(§6) Synergy can also be measured by nonlinear blending synergy. Nonlinear blending synergy [Peterson, J. J. and Novik, S. J. J Recept Signal Transduct Res, 27, 12-146 (2007))] is found by considering the percent cell death values along the nonlinear blending plot. If the maximum cell death occurs between the endpoints, then the blending synergy is the difference between the maximum cell death for the combined drugs and the maximum cell death for the either drug alone.
(§7) A derivative of Loewe additivity is the Combination Index, I (see Chou T. C., Talalay P. Adv. Enzyme Reg., 22: 27-55 (1984) and Berenbaum M. C. J. Theor. Biol., 114:413-431 (1985)). This measure is based on the shape of the isobologram which represents 50% viability (for a review of the use of isobolograms in analysis of drug combinations, see Tallarida, R. J. J. Pharm. Exp. Therap. 319:1-7 (2006)).
(§8) The results in Table 38A were summarized by categorizing the Combination Index, I. A mean Combination Index in the range (0.7-1.3) is classified as Additivity. A mean in the range (0-0.7) is classified as Synergy. A mean in the range (1.3-2) is classified as Subadditivity. A mean greater than 2 is classified as Antagonism. […] In this case, the Nonlinear Blending Synergy is used instead to generate a call (Table 38B). The categorization is similar to the Combination Index. A Nonlinear Blending Synergy within the range (−20, 20) is classified as Additive. A value below −20 is classified as Antagonism, while a value above 20 is classified as Synergy.

[2] = biological target: human VPS34 (Homo sapiens (Human), UniProt Q8NEB9); test: Human VPS34 enzyme assay (Adapta TR-FRET ADP detection); type: biochemical; details: IC50 range class
[3] = tested on: NCI-H1650 cell line; test: Cellular anti-proliferative assay of VPS34 inhibitors in combination with a second therapeutic agent (Cell Titer Glo, 72 hrs); type: cell-based, human; details: NCI H-1650; for Blending Synergy: in combination with Erlotinib (Compound Y)
Method: as §1, §2, §3, §4, §5, §6, §7, §8

[4] = tested on: PC9 cell line; test: as above; type: cell-based, human
Method: as §1, §2, §3, §4, §5, §6, §7, §8

[5] = tested on: NCI-H1975 cell line; test: as above; type: cell-based, human
Method: as §1, §2, §3, §4, §5, §6, §7, §8

[6] = in combination with AZD9291 (Compound Y)
[7] = in combination with AZD9291, call from Combination Index
[8] = in combination with Afatinib (Compound Y)
[9] = in combination with Afatinib, call from Combination Index
[10] = in combination with CO-1686 (Compound Y)
[11] = in combination with CO-1686, call from Combination Index
[12] = in combination with Erlotinib (Compound Y)
[13] = in combination with Erlotinib, call from Combination Index

human VPS34, sequence (Q8NEB9 whole entry): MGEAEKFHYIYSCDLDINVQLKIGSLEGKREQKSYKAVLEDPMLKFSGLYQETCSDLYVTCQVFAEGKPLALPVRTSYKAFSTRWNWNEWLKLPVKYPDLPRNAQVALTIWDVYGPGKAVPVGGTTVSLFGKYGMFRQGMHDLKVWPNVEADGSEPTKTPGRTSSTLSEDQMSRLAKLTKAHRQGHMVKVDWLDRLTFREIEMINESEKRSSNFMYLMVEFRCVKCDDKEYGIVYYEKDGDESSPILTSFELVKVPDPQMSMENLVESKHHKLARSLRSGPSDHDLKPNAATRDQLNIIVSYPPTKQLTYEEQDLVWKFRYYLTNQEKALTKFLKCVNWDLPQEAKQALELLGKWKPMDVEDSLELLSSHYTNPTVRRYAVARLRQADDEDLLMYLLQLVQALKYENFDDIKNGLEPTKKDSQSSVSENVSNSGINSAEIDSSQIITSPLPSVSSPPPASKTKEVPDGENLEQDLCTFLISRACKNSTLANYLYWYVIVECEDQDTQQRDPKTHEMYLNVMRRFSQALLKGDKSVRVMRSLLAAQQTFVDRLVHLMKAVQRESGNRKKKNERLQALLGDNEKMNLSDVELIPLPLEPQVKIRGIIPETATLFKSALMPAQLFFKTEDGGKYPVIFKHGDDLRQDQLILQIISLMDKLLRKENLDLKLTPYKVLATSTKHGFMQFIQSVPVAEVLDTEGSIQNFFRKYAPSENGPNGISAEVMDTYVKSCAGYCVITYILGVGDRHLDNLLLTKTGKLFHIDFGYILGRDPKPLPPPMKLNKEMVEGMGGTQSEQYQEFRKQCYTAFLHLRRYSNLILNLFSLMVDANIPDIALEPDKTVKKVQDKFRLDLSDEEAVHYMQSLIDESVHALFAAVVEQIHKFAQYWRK

SMILES | Combination Index [1, 6] | Meaning [1, 7] | Combination Index [1, 8] | Meaning [1, 9] | Combination Index [1, 10] | Meaning [1, 11] | Combination Index [1, 12] | Meaning [1, 13] | IC50 [2] [µM] | Combination Index [3, 6] | Combination Index [3, 8] | Combination Index [3, 10] | Blending Synergy [3] | Combination Index [4, 6] | Meaning [4, 7] | Combination Index [4, 8] | Meaning [4, 9] | Combination Index [4, 12] | Meaning [4, 13] | Combination Index [5, 8] | further results
CC(=O)Nc1cc(-c2cnc(C)c(NS(=O)(=O)c3ccc(F)cc3F)c2)ccn1 [Compound I-41, N-(5-{[(2,4-difluorophenyl)sulfonyl]amino}-6-methyl-3,4′-bipyridin-2′-yl)acetamide] | 0.62 | Synergy (A mean in the range (0-0.7) is classified as Synergy) | 0.24 | Synergy (A mean in the range (0-0.7) is classified as Synergy) | 0.74 | Additivity (A mean Combination Index in the range (0.7-1.3) is classified as Additivity) | 0.38 | Synergy (A mean in the range (0-0.7) is classified as Synergy) | < 0.01 | 0.92 | 0.72 | 0.58 | 20.5 | 0.92 | Additivity (A mean Combination Index in the range (0.7-1.3) is classified as Additivity) | 1.02 | Additivity (A mean Combination Index in the range (0.7-1.3) is classified as Additivity) | 1.02 | Additivity (A mean Combination Index in the range (0.7-1.3) is classified as Additivity) | 0.58 | Combination Index [4, 10]: 0.84; Meaning [4, 11]: Additivity (A mean Combination Index in the range (0.7-1.3) is classified as Additivity); Combination Index [5, 6]: 0.45; Combination Index [5, 10]: 0.51
CC(=O)Nc1cc(-c2cnc(C)c(NS(=O)(=O)c3ccc(Cl)cc3F)c2)ccn1 [Compound I-94, N-(5-{[(4-chloro-2-fluorophenyl)sulfonyl]amino}-6-methyl-3,4′-bipyridin-2′-yl)acetamide] | – | – | 0.23 | Synergy (A mean in the range (0-0.7) is classified as Synergy) | – | – | 0.38 | Synergy (A mean in the range (0-0.7) is classified as Synergy) | < 0.01 | – | 0.65 | – | 23.69 | – | – | 1.04 | Additivity (A mean Combination Index in the range (0.7-1.3) is classified as Additivity) | 0.91 | Additivity (A mean Combination Index in the range (0.7-1.3) is classified as Additivity) | 0.54 | –
CC(=O)Nc1cc(-c2cnc(Cl)c(NS(=O)(=O)c3ccc(F)cc3F)c2C)ccn1 [Compound I-153, N-(6-chloro-5-{[(2,4-diflourophenyl)sulfonyl]amino}-4-methyl-3,4′-bipyridin-2′-yl)acetamide] | – | – | 0.23 | Synergy (A mean in the range (0-0.7) is classified as Synergy) | – | – | – | – | < 0.01 | – | 0.64 | – | 23.76 | – | – | 1.17 | Additivity (A mean Combination Index in the range (0.7-1.3) is classified as Additivity) | 0.97 | Additivity (A mean Combination Index in the range (0.7-1.3) is classified as Additivity) | – | Blending Synergy [1, 12]: 16.3; Meaning ([1]; in combination with Erlotinib, call from Nonlinear Blending Synergy): Additivity; Blending Synergy [5, 8]: 8.72
Cc1ncc(-c2ccnc(Nc3ccncn3)c2)cc1NS(=O)(=O)N(C)C [Compound I-217, N,N-dimethyl-N′-[6-methyl-2′-(pyrimidin-4-ylamino)-3,4′-bipyridin-5-yl]sulfuric diamide] | – | – | 0.36 | Synergy (A mean in the range (0-0.7) is classified as Synergy) | – | – | 0.46 | Synergy (A mean in the range (0-0.7) is classified as Synergy) | < 0.01 | – | 0.31 | – | 28.65 | – | – | 0.97 | Additivity (A mean Combination Index in the range (0.7-1.3) is classified as Additivity) | 0.87 | Additivity (A mean Combination Index in the range (0.7-1.3) is classified as Additivity) | 0.52 | –
Cc1nccc(Nc2cc(-c3cnc(Cl)c(NS(=O)(=O)c4ccc(F)cc4F)c3C)ccn2)n1 [Compound I-299, N-{6-chloro-4-methyl-2′-[(2-methylpyrimidin-4-yl)amino]-3,4′-bipyridin-5-yl}-2,4-difluorobenzenesulfonamide] | 1.00 | Additivity (A mean Combination Index in the range (0.7-1.3) is classified as Additivity) | 1.01 | Additivity (A mean Combination Index in the range (0.7-1.3) is classified as Additivity) | 1.02 | Additivity (A mean Combination Index in the range (0.7-1.3) is classified as Additivity) | 1.01 | Additivity (A mean Combination Index in the range (0.7-1.3) is classified as Additivity) | 0.01 to 0.05 | 0.87 | 0.47 | 0.43 | 26.93 | 1.17 | Additivity (A mean Combination Index in the range (0.7-1.3) is classified as Additivity) | 1.37 | Subadditivity (A mean in the range (1.3-2) is classified as Subadditivity) | 1.18 | Additivity (A mean Combination Index in the range (0.7-1.3) is classified as Additivity) | 0.68 | Combination Index [4, 10]: 1.00; Meaning [4, 11]: Additivity (A mean Combination Index in the range (0.7-1.3) is classified as Additivity); Combination Index [5, 6]: 0.54; Combination Index [5, 10]: 0.72
Cc1nccc(Nc2cc(-c3cnc(C)c(C(=O)N4CCC4)c3)ccn2)n1 [Compound I-304, Azetidin-1-yl(6-methyl-2′-((2-methylpyrimidin-4-yl)amino)-3,4′-bipyridin-5-yl)methanone] | 0.78 | Additivity (A mean Combination Index in the range (0.7-1.3) is classified as Additivity) | – | – | 0.99 | Additivity (A mean Combination Index in the range (0.7-1.3) is classified as Additivity) | – | – | 0.01 to 0.05 | 0.80 | – | 0.47 | – | 0.98 | Additivity (A mean Combination Index in the range (0.7-1.3) is classified as Additivity) | – | – | – | – | – | Combination Index [4, 10]: 0.90; Meaning [4, 11]: Additivity (A mean Combination Index in the range (0.7-1.3) is classified as Additivity); Combination Index [5, 6]: 1.00; Combination Index [5, 10]: 0.77
